Patent US20070167488A1, “Novel therapeutic use” (Leo Pharma A/S, priority 2003, published 2007)
Like-named read-outs stand apart in the source and are kept apart here. Marks after values point to notes of the source that are not given here.

Columns and labels:
[1] = test system: EAE induced in SJL/J mice with a peptide from myelin proteolipid protein (PLP139-153); assay: EAE model in SJL/J mice immunized with PLP139-153 peptide; assay type: in vivo, mouse; settings: for Inhibition of EAE compared with the suspension vehicle group (in words): SJL/J mice, PLP139-153, doses as in tables 1 and 3; for inhibition of EAE: another experiment (data not shown)
IL-2 = assay: Inhibition of IL-2 production in phytohemagglutinin-activated human PBMCs (sandwich ELISA); assay type: cell-based; settings: approximately 46 hours; for IC50: PBMC, read-out: IL-2 pIC50 (converted)
Experimental: Peripheral blood mononuclear cells (PBMCs) were isolated from human blood. The lymphocytes, a fraction of the PBMCs, were activated to secrete IL-2 using the polyclonal mitogen phytohemagglutinin. The test compounds were added in concentrations from 10^−5 to 10^−10, and the cells (10^6/ml) were incubated in microtiter wells at 37° C. for approximately 46 hours.
After 46 hours the cells were centrifuged down for 25 minutes at 1000×g and the supernatants were transferred to transferred to microtiter wells precoated with a monoclonal antibody against human IL-2. The IL-2 concentration in the supernatants was determined by a sandwich ELISA. Microtiter plates were coated (1 μg/ml) with a monoclonal antibody (R&D, UK) against human IL-2, washed 4 times, blocked with 1% casein buffer for 2 hours and washed 2 times. 100 μl sample was added to each well and incubated overnight. All samples were tested in triplicate. 100 μl IL-2 standards (R&D, UK) at a concentration range of 10000-0 pg/ml were tested in triplicate. After incubation the plates were washed and incubated with biotinylated polyclonal secondary antibody against human IL-2 (R&D, UK) for 45 minutes and thereafter washed 4 times. 100 μl enzyme conjugate, horseradish peroxidase conjugated streptavidin diluted 1:4000 (Zymed, USA), was added to all wells and incubated for 30 minutes. 100 μl OPD substrate (KEM EN TEC-DK) was added and the enzyme/substrate reaction stopped after 10 minutes at room temperature with 50 μl 1 M H2SO4. The colour development (optical density—OD) was determined at 492 nm on an ELISA reader and the background OD at 620 nm subtracted).

[2] = Table 4, 50 mg/kg daily, treatment as in example 4
[3] = Table 7, 50 mg/kg p.o., suspension vehicle
[4] = Exp. 1, terminated day 21, 50 mg/kg i.p. daily
[5] = Exp. 4, terminated day 35, 200 mg/kg p.o. daily
[6] = Table 3, experiment with vehicle AUC 42.75, day 0-21, 50 mg/kg i.p. daily
[7] = Table 7, 50 mg/kg p.o., suspension vehicle adjusted to pH 4 by addition of aqueous HCl
[8] = Exp. 2, terminated day 21, 5 mg/kg i.p. daily
[9] = Exp. 2, terminated day 21, 10 mg/kg i.p. daily

IC50 (IL-2; Homo sapiens, 46 h) [nM]	SMILES	further results
6.31	O=C1Nc2ccccc2/C1=C\c1ccc2cc[nH]c2c1	–
6.31	COc1ncc(/C=C2/C(=O)Nc3ccccc32)c(OC)n1	–
2	O=C1Nc2ccccc2/C1=C\c1c[nH]c2c(F)c(F)c(F)c(F)c12	–
3.98	O=C1Nc2ccc(F)c(F)c2/C1=C/c1c[nH]c2ccccc12	–
20	O=C1Nc2ccccc2/C1=C/c1cccc([N+](=O)[O-])c1	–
79.4	O=C1Nc2ccc(O)cc2/C1=C/c1c[nH]c2ccccc12	–
100	Cc1cc(/C=C2/C(=O)Nc3ccccc32)sc1C	–
100	O=C1Nc2ccccc2/C1=C/c1c[nH]c2ccc(F)cc12	–
200	CCOC(=O)CCn1cc(/C=C2\C(=O)Nc3ccccc32)c2ccccc21	–
398	Cc1cccc(COc2ccc(/C=C3/C(=O)Nc4ccccc43)cc2)n1	–
100	Cc1cc(C(=O)NCCCCc2ccccc2)[nH]c1/C=C1\C(=O)Nc2ccccc21	–
100	O=C1Nc2ccccc2/C1=C\c1c(-c2ccccc2)[nH]c2ccccc12	–
794	Cn1cc(/C(C(=O)O)=C2\C(=O)Nc3ccccc32)c2ccccc21	–
100	COc1cc(/C=C2/C(=O)Nc3ccccc32)ccc1O	–
100	Cn1c(/C=C2/C(=O)Nc3ccccc32)cc2ccccc21	–
1	O=C1Nc2ccccc2/C1=C/c1c[nH]c2ccccc12	–
0.2	O=C1Nc2c(Br)cccc2/C1=C/c1c[nH]c2ccccc12	–
79.4	CN1CCN(c2c(/C=C3\C(=O)Nc4ccccc43)c3ccccc3n2C)CC1	–
1	Cc1[nH]c(/C=C2\C(=O)Nc3ccccc32)c(C)c1Cl	–
6.31	COc1ccc(OC)c(/C=C2/C(=O)Nc3ccc(Cl)cc32)c1	–
6.31	O=C1Nc2ccccc2/C1=C\c1cc(Br)cs1	–
20	O=C1Nc2ccccc2/C1=C\c1ccc(Br)s1	–
1	O=C1Nc2ccccc2/C1=C\c1ccc(Cl)c(Cl)c1	–
31.6	O=C1Nc2ccccc2/C1=C\c1cc(Br)co1	–
3.98	COc1ccc(OC)c(/C=C2/C(=O)Nc3ccccc32)c1 [drawing 114]	–
1	N#Cc1ccc2c(c1)/C(=C/c1c[nH]c3ccccc13)C(=O)N2	–
10	COc1ccc(OC)c(/C=C2/C(=O)Nc3cc(F)ccc32)c1	–
3.16	O=C1Nc2ccccc2/C1=C\c1cc(Cl)ccc1Cl	–
200	COc1ccc(OC)c(/C=C2/C(=O)Nc3ccc(O)cc32)c1	–
100	O=C1Nc2ccccc2/C1=C\c1cc(Cl)cc(Cl)c1OCc1ccc2ccccc2n1	–

Continued, compound first:

SMILES	IC50 (IL-2; Homo sapiens, 46 h) [nM]	further results
Cc1cc(C(=O)NCCO)[nH]c1/C=C1\C(=O)Nc2ccccc21 [Compound 02, 4-methyl-5-(2-oxo-1,2-dihydro-indol-3-ylidenemethyl)-1H-pyrrole-2-carboxylic acid (2-hydroxy-ethyl)-amide]	–	Inhibition (%) of EAE (area-under-curve of the disease score) [1, 2]: 41%
COc1ccc(CN(C)C)cc1/C=C1/C(=O)Nc2ccccc21 [Compound 32, 3-(5-dimethylaminomethyl-2-methoxy-benzylidene)-1,3-dihydro-indol-2-one]	–	Inhibition (%) of EAE (area-under-curve of the disease score) [1, 3]: 40%
CCCn1cc(/C=C2\C(=O)Nc3ccccc32)c2ccccc21 [Compound 31, 3-(1-propyl-1H-indol-3-ylmethylene)-1,3-dihydro-indol-2-one]	–	Inhibition (%) of EAE (area-under-curve of the disease score) [1, 2]: 60%
Cc1cc(C)c(/C(C(=O)O)=C2\C(=O)Nc3ccccc32)[nH]1 [Compound 229, (3,5-dimethyl-1H-pyrrol-2-yl)-(2-oxo-1,2-dihydro-indol-3-ylidene)-acetic acid]	–	Inhibition (%) of EAE (area-under-curve of the disease score) [1, 2]: 59%
Cc1[nH]c(/C=C2\C(=O)Nc3ccccc32)c(C)c1Br [Compound 22, 3-(4-bromo-3,5-dimethyl-1H-pyrrol-2-ylmethylene)-1,3-dihydro-indol-2-one]	–	Inhibition (%) of EAE (area-under-curve of the disease score) [1, 2]: 78%
Cc1ccc(C)c(/C=C2/C(=O)Nc3ccccc32)c1 [Compound 104, 3-(2,5-dimethyl-benzylidene)-1,3-dihydro-indol-2-one]	–	Inhibition (%) of EAE (area-under-curve of the disease score) [1, 2]: 71%
Cc1[nH]c(C=C2C(=O)Nc3ccccc32)c(C)c1CCC(=O)O [Compound A, 3-[2,4-dimethyl-5-(oxo-1,2-dihydroindol-3-ylidenemethyl)-1H-pyrrol-3-yl]-propionic acid, reference compound]	–	AUC (mean) of the disease score [1, 4]: 23.4; inhibition (%) [1, 4]: −36%; AUC (mean) of the disease score [1, 5]: 55.5; inhibition (%) [1, 5]: 11%; Inhibition of EAE compared with the suspension vehicle group (in words) [1]: no significant inhibition
Cc1cc(C)c(/C=C2\C(=O)N(O)c3ccccc32)[nH]1 [Compound 45, 3-(3,5-dimethyl-1H-pyrrol-2-ylmethylene)-1-hydroxy-1,3-dihydro-indol-2-one]	–	Inhibition (%) of EAE (area-under-curve of the disease score) [1, 2]: 67%
O=C(O)Cn1cc(/C=C2\C(=O)Nc3ccccc32)c2ccccc21 [Compound 26, [3-(2-oxo-1,2-dihydro-indol-3-ylidenemethyl)-indol-1-yl]-acetic acid]	–	Inhibition (%) of EAE (area-under-curve of the disease score) [1, 2]: 34%
COc1ccc(OC)c(/C=C2/C(=O)Nc3cc(Br)ccc32)c1 [Compound 171, 6-bromo-3-(2,5-dimethoxy-benzylidene)-1,3-dihydro-indol-2-one]	–	Inhibition (%) of EAE (area-under-curve of the disease score) [1, 2]: 40%
COc1ccc(/C=C2\C(=O)Nc3ccc(Cl)cc32)cc1	10	–
Cc1cc(CO)[nH]c1/C=C1\C(=O)Nc2ccccc21 [Compound 03, 3-(5-hydroxymethyl-3-methyl-1H-pyrrol-2-ylmethylene)-1,3-dihydro-indol-2-one]	–	Inhibition (%) of EAE (area-under-curve of the disease score) [1, 2]: 57%
Cc1[nH]c2ccccc2c1/C=C1/C(=O)Nc2ccccc21 [Compound 75, 3-(2-methyl-1H-indol-3-ylmethylene)-1,3-dihydro-indol-2-one]	–	Inhibition (%) of EAE (area-under-curve of the disease score) [1, 2]: 63%
COc1ccc(OC)c(/C=C2\C(=O)Nc3ccc(Cl)cc32)c1	20	–
COc1cc[nH]c1/C=C1\C(=O)Nc2ccc(Cl)cc21	50.1	–
COc1ccc(OC)c(/C=C2/C(=O)Nc3cc(C(F)(F)F)ccc32)c1	10	–
COc1ccc(OC)c(/C=C2\C(=O)N(OC)c3ccccc32)c1	20	–
CCOC(=O)CCCNC(=O)c1cc(C)c(/C=C2\C(=O)Nc3ccccc32)[nH]1	39.8	–
COc1ccc(OC)c(/C=C2/C(=O)Nc3ccccc32)c1 [Compound 110, 3-(2,5-dimethoxy-benzylidene)-1,3-dihydro-indol-2-one]	–	Inhibition of EAE compared with the suspension vehicle group (in words) [1]: clear and significant inhibition; AUC (mean) of the disease score [1, 6]: 12.15; inhibition (%) [1, 6]: 72%; Inhibition (%) of EAE (area-under-curve of the disease score) [1, 3]: 47%; Inhibition (%) of EAE (area-under-curve of the disease score) [1, 7]: 67** %; inhibition of EAE ([1]; 50 mg/kg, highest dose): 90%; inhibition of EAE ([1]; lowest dose (significant at 50, 25 and 10 mg/kg; 4 mg/kg also given)): 42%
Cc1cc(C)c(/C=C2\C(=O)Nc3cccc(C(=O)O)c32)[nH]1	100	–
O=C1Nc2ccccc2C1=Cc1cc(Cl)ccc1Cl (racemic) [Compound 193, 3-(2,5-dichloro-benzylidene)-1,3-dihydro-indol-2-one]	–	Inhibition (%) of EAE (area-under-curve of the disease score) [1, 2]: 37%
CO[C@@H]1[C@H](OC(=O)NC(=O)CCl)CC[C@]2(CO2)[C@H]1[C@@]1(C)O[C@@H]1CC=C(C)C [Compound B, reference compound]	–	AUC (mean) of the disease score [1, 8]: 19.0; inhibition (%) [1, 8]: 25%; AUC (mean) of the disease score [1, 9]: 19.3; inhibition (%) [1, 9]: 24%; Inhibition of EAE compared with the suspension vehicle group (in words) [1]: no significant inhibition
COc1ccc(OC)c(/C=C2/C(=O)Nc3ccc(F)cc32)c1 [Compound 211, 3-(2,5-dimethoxy-benzylidene)-5-fluoro-1,3-dihydro-indol-2-one]	–	Inhibition (%) of EAE (area-under-curve of the disease score) [1, 7]: 37** %
Cc1cc(C(=O)NCC2CCCO2)[nH]c1/C=C1\C(=O)Nc2ccccc21 (stereo not shown)	20	–
Cc1[nH]c(/C=C2\C(=O)Nc3cccc(Cl)c32)c(C)c1CCC(=O)O	50.1	–
Cc1cc(C)c(/C=C2\C(=O)Nc3ccccc32)[nH]1	–	IC50 (IL-2): 0.2 nM
COc1ccc(OC)c(/C=C2/C(=O)Nc3ccc(C(F)(F)F)cc32)c1	631	–
Cc1cc(C)c(/C(C(=O)OCc2ccccc2)=C2\C(=O)Nc3ccccc32)[nH]1	20	–
COc1ccc(OC)c(/C=C2/C(=O)Nc3ccc(N)cc32)c1.CS(=O)(=O)O	–	IL-2 pIC50 (IL-2): 7.2
